Data as given in patent publication US10765114B2, “4-amino-6-(pyridyl and 2-substitutedphenyl)-picolinates and 6-amino-2-(pyridyl and 2-substitutedphenyl)-pyrimidine-4-carboxylates and their use as herbicides” (Dow AgroSciences LLC, priority 2013, dated 2020).
Where two headings read alike, the source gives them in different places.

Legend:
[1] = test system: Key Broadleaf Weed and Crop Species; assay: Post-Emergent Test II (Table 5); assay type: in vivo; details: post-emergence, 336 h; for pest or weed control at 70 g/ha: application rate 70 (kg ai/ha; footnote: g ai/ha); for pest or weed control at 140 g/ha: application rate 140 (kg ai/ha; footnote: g ai/ha)
Procedure, shortened: (§1)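 Visual injury ratings (0 = no injury, 100 = complete kill) were taken 14 days after treatment relative to untreated plants. Seedlings at the first or second true leaf stage received an overhead spray at 187 L/ha, and solvent-blank sprayed plants served as controls.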

[2] = test system: Key Grass and Sedge Weeds as well as Grass Crops; assay: Post-Emergent Test II (Table 6); assay type: in vivo; details: post-emergence, 336 h, 14 days after application; for pest or weed control at 70 g/ha: 70 g ai/ha; for pest or weed control at 140 g/ha: 140 g ai/ha
Procedure, shortened: as §1

[3] = Abutilon theophrasti, ABUTH: velvetleaf (Abutilon theophrasti), read-out: Visual Growth Reduction (%) 14 Days After Application ABUTH
[4] = Amaranthus retroflexus, AMARE: redroot pigweed (Amaranthus retroflexus), read-out: Visual Growth Reduction (%) 14 Days After Application AMARE
[5] = Brassica napus, BRSSS: oilseed rape, canola (Brassica napus), read-out: Visual Growth Reduction (%) 14 Days After Application BRSSS
[6] = Chenopodium album, CHEAL: lambsquarters (Chenopodium album), read-out: Visual Growth Reduction (%) 14 Days After Application CHEAL
[7] = Euphorbia heterophylla, EPHHL: wild poinsettia (Euphorbia heterophylla), read-out: Visual Growth Reduction (%) 14 Days After Application EPHHL
[8] = Helianthus annuus, HELAN: sunflower (Helianthus annuus), read-out: Visual Growth Reduction (%) 14 Days After Application HELAN
[9] = Viola tricolor, VIOTR: wild pansy (Viola tricolor), read-out: Visual Growth Reduction (%) 14 Days After Application VIOTR
[10] = CYPSS, read-out: Visual Growth Reduction (%) 14 Days After Application CYPSS
[11] = DIGSA: crabgrass (Digitaria sanguinalis), read-out: Visual Growth Reduction (%) 14 Days After Application DIGSA
[12] = ECHSS, read-out: Visual Growth Reduction (%) 14 Days After Application ECHSS
[13] = ORYSS (crop), read-out: Visual Growth Reduction (%) 14 Days After Application ORYSS
[14] = SETFA: giant foxtail (Setaria faberi), read-out: Visual Growth Reduction (%) 14 Days After Application SETFA
[15] = SORVU: grain sorghum (Sorghum vulgare), read-out: Visual Growth Reduction (%) 14 Days After Application SORVU
[16] = TRZSS (crop), read-out: Visual Growth Reduction (%) 14 Days After Application TRZSS
[17] = ZEAMX: maize, corn (Zea mays), read-out: Visual Growth Reduction (%) 14 Days After Application ZEAMX

COc1c(N)nc(-c2ccc(C(F)(F)F)nc2)nc1C(=O)O [Compound 5, 6-amino-5-methoxy-2-(6-(trifluoromethyl)pyridin-3-yl)pyrimidine-4-carboxylic acid]
0 to 29%: pest or weed control at 70 g/ha [1, 3] | pest or weed control at 140 g/ha [1, 3] | pest or weed control at 70 g/ha [1, 6] | pest or weed control at 70 g/ha [1, 9] | pest or weed control at 70 g/ha [2, 10] | pest or weed control at 140 g/ha [2, 10] | pest or weed control at 70 g/ha [2, 13] | pest or weed control at 140 g/ha [2, 13] | pest or weed control at 70 g/ha [2, 14] | pest or weed control at 70 g/ha [2, 15] | pest or weed control at 140 g/ha [2, 15] | pest or weed control at 70 g/ha [2, 16] | pest or weed control at 70 g/ha [2, 17] | pest or weed control at 140 g/ha [2, 17]
95 to 100%: pest or weed control at 140 g/ha [1, 7]
188 °C: melting point
85 to 94%: pest or weed control at 140 g/ha [1, 4] | pest or weed control at 70 g/ha [1, 5] | pest or weed control at 140 g/ha [1, 5] | pest or weed control at 70 g/ha [1, 7] | pest or weed control at 70 g/ha [2, 12] | pest or weed control at 140 g/ha [2, 12]
60 to 74%: pest or weed control at 70 g/ha [1, 8] | pest or weed control at 70 g/ha [2, 11]
75 to 84%: pest or weed control at 70 g/ha [1, 4] | pest or weed control at 140 g/ha [1, 8] | pest or weed control at 140 g/ha [2, 11]
30 to 44%: pest or weed control at 140 g/ha [1, 9] | pest or weed control at 140 g/ha [2, 14] | pest or weed control at 140 g/ha [2, 16]
45 to 59%: pest or weed control at 140 g/ha [1, 6]

Nc1c(F)c(-c2ccc(C3CC3)nc2)nc(C(=O)O)c1Cl [Compound 36, 4-amino-5-chloro-6′-cyclopropyl-3-fluoro-[2,3′-bipyridine]-6-carboxylic acid]
45 to 59%: pest or weed control at 140 g/ha [2, 16]
60 to 74%: pest or weed control at 70 g/ha [2, 11] | pest or weed control at 70 g/ha [2, 15] | pest or weed control at 140 g/ha [2, 15]
95 to 100%: pest or weed control at 140 g/ha [1, 3] | pest or weed control at 70 g/ha [1, 4] | pest or weed control at 140 g/ha [1, 4] | pest or weed control at 140 g/ha [1, 5] | pest or weed control at 70 g/ha [1, 6] | pest or weed control at 140 g/ha [1, 6] | pest or weed control at 70 g/ha [1, 7] | pest or weed control at 140 g/ha [1, 7] | pest or weed control at 70 g/ha [1, 8] | pest or weed control at 140 g/ha [1, 8] | pest or weed control at 70 g/ha [2, 10] | pest or weed control at 140 g/ha [2, 10] | pest or weed control at 70 g/ha [2, 14] | pest or weed control at 140 g/ha [2, 14] | pest or weed control at 70 g/ha [2, 17] | pest or weed control at 140 g/ha [2, 17]
0 to 29%: pest or weed control at 70 g/ha [1, 9] | pest or weed control at 140 g/ha [1, 9] | pest or weed control at 70 g/ha [2, 13] | pest or weed control at 140 g/ha [2, 13]
260 to 265 °C (dec.): melting point
75 to 84%: pest or weed control at 140 g/ha [2, 11]
85 to 94%: pest or weed control at 70 g/ha [1, 3] | pest or weed control at 70 g/ha [1, 5] | pest or weed control at 70 g/ha [2, 12] | pest or weed control at 140 g/ha [2, 12]
30 to 44%: pest or weed control at 70 g/ha [2, 16]

COC(=O)c1nc(-c2c(F)cc(Cl)c(F)c2C)cc(N)c1Cl [Compound 38, methyl 4-amino-3-chloro-6-(4-chloro-3,6-difluoro-2-methylphenyl)picolinate]
95 to 100%: pest or weed control at 70 g/ha [1, 3] | pest or weed control at 140 g/ha [1, 3] | pest or weed control at 70 g/ha [1, 4] | pest or weed control at 140 g/ha [1, 4] | pest or weed control at 70 g/ha [1, 5] | pest or weed control at 140 g/ha [1, 5] | pest or weed control at 140 g/ha [1, 6] | pest or weed control at 140 g/ha [1, 8]
30 to 44%: pest or weed control at 70 g/ha [1, 7]
144 to 146 °C: melting point
60 to 74%: pest or weed control at 140 g/ha [2, 16]
75 to 84%: pest or weed control at 70 g/ha [1, 8] | pest or weed control at 70 g/ha [1, 9]
0 to 29%: pest or weed control at 70 g/ha [2, 10] | pest or weed control at 140 g/ha [2, 10] | pest or weed control at 70 g/ha [2, 11] | pest or weed control at 140 g/ha [2, 11] | pest or weed control at 70 g/ha [2, 12] | pest or weed control at 140 g/ha [2, 12] | pest or weed control at 70 g/ha [2, 13] | pest or weed control at 140 g/ha [2, 13] | pest or weed control at 70 g/ha [2, 14] | pest or weed control at 140 g/ha [2, 14] | pest or weed control at 70 g/ha [2, 15] | pest or weed control at 140 g/ha [2, 15] | pest or weed control at 70 g/ha [2, 17] | pest or weed control at 140 g/ha [2, 17]
45 to 59%: pest or weed control at 140 g/ha [1, 7] | pest or weed control at 70 g/ha [2, 16]
85 to 94%: pest or weed control at 70 g/ha [1, 6] | pest or weed control at 140 g/ha [1, 9]
